The results in this text go back to PMC9695592, “Phenotypic Evaluation of Nucleoside Analogues against Trypanosoma cruzi Infection: In Vitro and In Vivo Approaches” (Molecules, 2022).

In general, pEC50 refers to the negative decadic logarithm of the EC50, by convention in mol/L. The term EC90 denotes the concentration at which the effect reaches the 90% level. As a reminder, the IC50 is the midpoint of a concentration-inhibition curve.

Assay [1] concerns intracellular forms of T. cruzi (Y strain) in 2D H9C2. The assay can be described thus: Activity against T. cruzi (Y strain) infection of H9C2 monolayers (2D). It is filed as cell-based, Trypanosoma cruzi. Conditions: 10 µM, seven days of incubation, 95% confidence interval in brackets. An excerpt:
(§1) L929 cell lines were used to evaluate the effect of the nucleoside derivatives on the cellular viability of mammalian host cells and to assess their activity against intracellular forms of T. cruzi (Tulahuen strain expressing E. coli β-galactosidase gene, DTU VI) as reported. 2D and 3D culture systems of rat cardiomyoblast cell lines (H9C2(2-1)) were used to evaluate cardiotoxicity and to test the derivatives’ activity on intracellular forms (Y strain, DTU II). In all assays, the cell cultures were maintained at 37 °C under an atmosphere of 5% CO2.
(§2) Bloodstream trypomastigotes of the Y strain (DTU II) were obtained by cardiac puncture of infected Swiss Webster mice on the parasitemia peak to perform drug sensitivity assays. Trypomastigote forms of the Tulahuen-β gal strain were collected from the supernatant of previously infected L929 cell cultures (host/parasite cell ratio 10:1). The intracellular forms T. cruzi were studied by the infection of L929 and H9C2 (2D and 3D) cell cultures infected for 48 and 24 h with trypomastigotes of Tulahuen-β gal and Y strains, respectively. The Leishmania mexicana-Cas9 T7 strain (LmexCas9) was derived from L. mexicana WT promastigotes by expression of the Streptococcus pyogenes Cas9 nuclease gene ‘Cas9′ and maintained on 32 μg/mL hygromycin [51]. This strain and the derived strains Cas9^ΔNT1 and Cas9^ΔNT1+TcrNT2 were cultured in HOMEM medium supplemented with 10% of FBS and 1% Penicillin-Streptomycin antibiotic in unvented flasks at 25 °C [52]. The Cas9^ΔNT1 strain is identical to Cas9 except that the LmexNT1.1/NT1.2 locus encoding the L. mexicana adenosine/ pyrimidine transporters was excised using Cas9 [17, 40]. Cas9^ΔNT1+TcrNT2 is the further modification of that strain by the expression of the T. cruzi nucleoside transporter 2 (TcrNT2) gene in it, using the vector pNUS-HcN [53]. Appropriate antibiotics were added for the selection and maintenance of transfectants.
In an initial step, nucleoside derivatives were assayed against intracellular forms of Tulahuen-β gal strain in L929 cell lines. Assays were performed in sterile 96-well microtiter plates with 4 × 10^3 cells/well and 4 × 10^4 parasites/well (host/parasite cell ratio 1:10). […] Parasite burden was analyzed by adding the substrate CPRG (chlorophenol red ß-D-galactopyranoside) followed by measurements (spectrophotometrically) at 570 nm. The results were expressed as percentage of reduction in parasite growth compared to untreated cells, and EC50 values were calculated. […] After seven days of treatment, the cultures were fixed, stained with Giemsa, and 200 cells were quantified by light microscopy. The results were expressed as % of reduction in parasite burden. […]

The test system of assay [2] is bloodstream trypomastigotes of T. cruzi (Y strain). The assay can be described thus: Activity against bloodstream trypomastigotes, light microscopy counting. It is filed as cell-based. Conditions: Trypanosoma cruzi, 24 h of compound incubation, 95% confidence interval in brackets; for pEC50: read-out: Activity upon Bloodstream Forms EC50; for EC90: read-out: Activity upon Bloodstream Forms EC90. Here is the method: as §2
To analyze the compound activity against bloodstream trypomastigotes of T. cruzi (Y strain), […] of parasite were added in 96-well microtiter plates and incubated for 2 or for 24 h at 37 °C in RPMI culture medium in the presence or absence of each compound (up to 30 µM). The death rates were quantified by light microscopy using a Neubauer chamber to determine the EC50 [49, 58]. The data results from two independent experiments performed in duplicate were obtained.

The test system of the next assay is H9C2 3D cultures. The assay can be described thus: Cardiotoxicity on H9C2 organoids (3D), PrestoBlue. It is filed as cell-based, rat. Conditions: 95% confidence interval in brackets.
Source text: as §1
L929 cells seeded in sterile 96-well microtiter plates were exposed or not to increasing concentrations (up to 200 µM) of the compounds. After seven days of incubation, the cell growth of treated cultures was compared to untreated control cells (100% cell growth). Cellular viability was assessed through AlamarBlue® (resazurin sodium salt) colorimetric assay, and the results were expressed as % reduction in cell growth/viability compared to untreated control, and an IC50 value determined. For the assays using H9C2 cultures, 25 × 10^3 cells/well were seeded in a 96-well microtiter plates (flat and U bottoms, precoated with agarose 1% for preparing 2- and 3D matrices, respectively) and maintained at 37 °C [48, 54].
The cardiac cultures were exposed or not to increasing concentrations of the nucleoside derivatives (up to 300 µM), and after seven days of incubation, their physiology and morphology was evaluated by light microscopy. Cell viability was measured using the PrestoBlue® (PB) colorimetric assay, the results evaluated as % reduction in cell growth/viability compared to untreated control, and an IC50 value determined. The data results from at least two independent experiments done in at least duplicates.

The mark [3] stands for this setting: Rattus norvegicus, H9c2, 168 h, read-out: Cardiotoxic profile IC50 (µM) 3D, 3D H9C2, seven days of compound incubation.
[4] abbreviates: read-out: Cardiotoxic profile IC50 (µM) 3D, 3D H9C2, seven days of compound incubation.

pEC50: −log10 of the molar value. Like-named read-outs stand apart in the source and are kept apart here.

For `Nc1ncnc2c1c(-c1ccc(Cl)c(F)c1)cn2[C@@H]1O[C@H](CO)[C@@H](O)[C@H]1O` [FH10714, 7-(3-fluoro,4-chlorophenyl)tubercidin], in assay [1], the “% of Death Rate by Light Microscopy Quantification 2D” value (“% of Death Rate” below) worked out at 100%. For the same compound, in assay [2], the negative-log EC50 (pEC50) was 4.87 and the EC90 is more than 30 µM. Moreover, in the assay with H9C2 3D cultures (setting [3]), the IC50 was 180 µM. For the same compound, the IC50 in the assay on H9C2 3D cultures (setting [4]) was 181 µM.
With `Nc1ncnc2c1c(-c1ccc(F)c(F)c1)cn2[C@@H]1O[C@H](CO)[C@@H](O)[C@H]1O` [FH11706, 7-(3,4-Difluorophenyl)tubercidin], in assay [1], the “% of Death Rate” value is recorded as 99.25 (98.83 to 99.67) %. Further, in assay [2], the pEC50 is 4.75 and the EC90 was more than 30 µM. In addition, the IC50 in the assay on H9C2 3D cultures (setting [3]) is more than 200 µM.
With `O=C(Cn1ccnc1[N+](=O)[O-])NCc1ccccc1` [Bz, Benznidazole, reference compound], the “% of Death Rate” value in assay [1] came to 100%. In assay [2], the pEC50 was 5.16 and the EC90 was determined as 19.6 µM. Besides, the IC50 in the assay on H9C2 3D cultures (setting [3]) is more than 200 µM.
As for `Nc1ncnc2c1c(-c1ccc(Cl)c(Cl)c1)cn2[C@@H]1O[C@H](CO)C[C@H]1O` [FH8513, 7-(3,4-dichlorophenyl)-3′-deoxytubercidin], the “% of Death Rate” value in assay [1] is listed as 99.14 (97.9 to 100) %. Besides, in assay [2], the pEC50 was 5.23 and the EC90 is 16.7 µM. Moreover, the IC50 with H9C2 3D cultures (setting [3]) is 199 µM. Also, the IC50 with H9C2 3D cultures (setting [4]) stood at 200 µM.
